How the values were obtained:
[1] = Terminal half life in psychotic patient (9 patients) at 2.9 +/- 1.2 mg, po by reversed phase HPLC method; assay type: ADME, organism-based; details: human, in vivo, 2.9 mg, read-out: beta t1/2 (converted)
[2] = Volume of distribution at steady state in psychotic patient (9 patients) at 3.5 +/- 1.2 mg, iv by reversed phase HPLC method; assay type: ADME, organism-based; details: human, in vivo, 3.5 mg, read-out: Vdss
[3] = Unbound fraction in psychotic patient (9 patients) at 3.5 +/- 1.2 mg, iv by reversed phase HPLC method; assay type: ADME, organism-based; details: human, in vivo
[4] = Terminal phase volume of distribution at steady state in psychotic patient (9 patients) at 3.5 +/- 1.2 mg, iv by reversed phase HPLC method based model-dependent approach analysis; assay type: ADME, organism-based; details: human, in vivo, 3.5 mg, read-out: Vbeta
[5] = Terminal half life in psychotic patient (9 patients) at 3.5 +/- 1.2 mg, iv by reversed phase HPLC method; assay type: ADME, organism-based; details: human, in vivo, 3.5 mg, read-out: beta t1/2 (converted)
[6] = Terminal phase volume of distribution at steady state in psychotic patient (9 patients) at 3.5 +/- 1.2 mg, iv by reversed phase HPLC method based model-independent approach analysis; assay type: ADME, organism-based; details: human, in vivo, 3.5 mg, read-out: Vbeta
Plasma = assay: Plasma concentration in psychotic patient; assay type: ADME; details: human
[7] = Terminal phase volume of distribution at steady state in psychotic patient (9 patients) at 3.5 +/- 1.2 mg, iv by reversed phase HPLC method; assay type: ADME, organism-based; details: human, in vivo, 3.5 mg, read-out: Vbeta
[8] = Unbound fraction in human serum; assay type: ADME, cell-free

half-life [1]: 18.1 h | Vd [2]: 7.9 L/kg | Fu [3]: 0.6% | Vd [4]: 9.6 L/kg | half-life [5]: 18.8 h | Vd [6]: 9.5 L/kg | Cp (Plasma): 5 ng/mL | Vd [7]: 9.5 L/kg | fraction unbound [8]: 0.08
Structure (SMILES): O=C(CCCN1CCC(O)(c2ccc(Cl)cc2)CC1)c1ccc(F)cc1 [HALOPERIDOL]

From ChEMBL document CHEMBL3784949 (Psychopharmacology (Berl), 1987)
